Where two headings read alike, the source gives them in different places. Starred links: 1 amine or outer side, 2 acyl side, 3 side chain; linkers in the order of their positions; H or OH if unused. Positions of bridges follow the written chain, without caps; N, C: chain ends. Non-standard residues stand in square brackets, D forms with d. Residues, ends and D or L forms follow the SMILES beside them. *: point of attachment. NMePhe(3-Cl) = CN[C@@H](Cc1cccc(Cl)c1)C(=O)O; NMeF = CN[C@@H](Cc1ccccc1)C(=O)O; NMeGABA = CN(CCCC(=O)[*:2])[*:1]; NMeI = CC[C@H](C)[C@H](NC)C(=O)O; NMeL = CN[C@@H](CC(C)C)C(=O)O; NMeV = CN[C@H](C(=O)O)C(C)C; NMeA = CN[C@@H](C)C(=O)O; Piperidide = C1CCN(*)CC1; dNMeA = CN[C@H](C)C(=O)O; β3hA = C[C@H](N)CC(=O)O; Sar = CNCC(=O)O; tBu = CC(C)(C)*
Key:
[1] = PAMPA (parallel artificial membrane permeability assay); assay type: in vitro ADME; settings: PAMPA
In short: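 Artificial membrane was 10% (w/v) egg lecithin plus 0.5% (w/v) cholesterol in dodecane on a PVDF filter. A 10 mM DMSO stock was added at 0.5% (v/v) to donor buffer (50 mM MOPSO, pH 6.5, 5.0% glycocholic acid). After 18 h at 37 °C, LC/MS or LC/UV gave donor and acceptor levels for Pe.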

[2] = Metabolic stability in human hepatic microsome; assay type: in vitro ADME; settings: microsomes
[3] = membrane permeation rate (Pe), 50 mM MOPSO buffer pH 6.5 with 5.0% glycocholic acid, 37° C., 18 hours, read-out: iPAMPA Pe
[4] = pH 7.4, human hepatic microsome, NADPH(+), read-out: CL NADPH(+)

Compound | Papp at 18 hours, 50 µM [1, 3] | microsomal CLint at 1 uM [2, 4] | Papp at 18 hours, 50 µM ([1]; pH 6.5) | microsomal CLint at 1 uM ([2]; human, pH 7.4, CL NADPH(+))
CC(C)C[C@H]1C(=O)N[C@@H](COC(C)(C)C)C(=O)N[C@@H]([C@@H](C)O)C(=O)N(C)[C@@H](Cc2ccccc2)C(=O)N(C)[C@@H](CC(C)C)C(=O)N[C@H](C(=O)N2CCCCC2)CC(=O)N[C@@H](C(C)C)C(=O)N1C [DP-748] (V[NMeL]S(tBu)T[NMeF][NMeL]D-Piperidide; lactam N-7) | 45 ×10⁻⁶ cm/s | 341 µL/min/mg |  | 
CC[C@H](C)[C@H]1C(=O)N(C)[C@@H](CC(C)C)C(=O)N[C@@H](C)C(=O)N(C)[C@@H](CC(C)C)C(=O)N(C)[C@@H](Cc2ccccc2)C(=O)N[C@@H]([C@@H](C)O)C(=O)N(C)[C@@H](Cc2ccccc2)C(=O)N(C)[C@@H](CC(C)C)C(=O)N(C)[C@@H](C)C(=O)N[C@@H](C)CC(=O)N[C@H](C(C)C)C(=O)N1C [DP-773] (cyclo(A[NMeL][NMeF]T[NMeF][NMeL][NMeA][β3hA][dV][NMeI][NMeL])) |  |  | 46 ×10⁻⁶ cm/s | 17 µL/min/mg
CC(C)C[C@H]1C(=O)N(C)CC(=O)N(C)[C@@H](Cc2ccccc2)C(=O)N[C@@H](COC(C)(C)C)C(=O)N[C@H](C(=O)N2CCCCC2)CC(=O)N(C)CCCC(=O)N[C@@H]([C@@H](C)O)C(=O)N1C [DP-534] ([NMeGABA]T[NMeL][Sar][NMeF]S(tBu)D-Piperidide; lactam N-7) | 6.3 ×10⁻⁶ cm/s | 55 µL/min/mg |  | 
CC[C@H](C)[C@H]1C(=O)N(C)[C@@H](C)C(=O)N(C)[C@@H](Cc2ccccc2)C(=O)N[C@@H]([C@@H](C)O)C(=O)N(C)[C@@H](Cc2ccccc2)C(=O)N(C)[C@@H](CC(C)C)C(=O)N2CCC[C@H]2C(=O)N[C@H](C(=O)N2CCCCC2)CC(=O)N[C@@H](C)C(=O)NCC(=O)N(C)[C@@H](CC(C)C)C(=O)N1C [DP-16] (AG[NMeL][NMeI][NMeA][NMeF]T[NMeF][NMeL]PD-Piperidide; lactam N-11) |  | 74 µL/min/mg | 30 ×10⁻⁶ cm/s | 
CC[C@H](C)[C@H]1C(=O)N[C@@H](Cc2ccccc2)C(=O)N(C)[C@@H](CC(C)C)C(=O)N[C@@H](CC(C)C)C(=O)N[C@H](C(=O)N2CCCCC2)CC(=O)N(C)[C@H](C)C(=O)N[C@@H](CC(C)C)C(=O)N(C)[C@@H](C)C(=O)N2CCC[C@H]2C(=O)N[C@@H]([C@@H](C)O)C(=O)N(C)[C@@H](Cc2ccccc2)C(=O)NCC(=O)N1C [DP-224] ([dNMeA]L[NMeA]PT[NMeF]G[NMeI]F[NMeL]LD-Piperidide; lactam N-12) |  |  | 18 ×10⁻⁶ cm/s | 18 µL/min/mg
CC[C@H](C)[C@H](NC(=O)[C@H](CC(C)C)N(C)C(=O)[C@H](CC(C)C)N(C)C(=O)[C@H](Cc1cccc(Cl)c1)N(C)C(=O)[C@@H]1CC(=O)N(C)[C@@H](C)C(=O)N[C@@H](C(C)C)C(=O)N(C)[C@@H](Cc2ccccc2)C(=O)N[C@@H]([C@@H](C)O)C(=O)N2CCC[C@H]2C(=O)N(C)[C@@H](Cc2ccccc2)C(=O)N[C@@H](CC(C)C)C(=O)N1)C(=O)N1CCCCC1 [DP-927] ([NMeA]V[NMeF]TP[NMeF]LD[NMePhe(3-Cl)][NMeL][NMeL]I-Piperidide; lactam N-8) |  |  | 0.1 ×10⁻⁶ cm/s | 5 µL/min/mg
CC(C)C[C@H]1C(=O)N[C@@H]([C@@H](C)O)C(=O)N[C@H](C(=O)N(C)[C@@H](Cc2ccccc2)C(=O)N(C)[C@@H](Cc2ccccc2)C(=O)N[C@@H](C)C(=O)N2CCCCC2)CC(=O)N(C)[C@@H](C)C(=O)N(C)CC(=O)N(C)[C@@H](Cc2ccccc2)C(=O)N(C)[C@@H](C)C(=O)N[C@@H](C)C(=O)N(C)[C@@H](C)C(=O)N1C [DP-406] ([NMeA][Sar][NMeF][NMeA]A[NMeA][NMeL]TD[NMeF][NMeF]A-Piperidide; lactam N-9) | 4.4 ×10⁻⁶ cm/s | 11 µL/min/mg |  | 
CC[C@H](C)[C@@H]1NC(=O)[C@@H]2CCCN2C(=O)[C@H](CC(C)C)N(C)C(=O)[C@H](Cc2ccccc2)NC(=O)CCCN(C)C(=O)C[C@@H](C(=O)N(C)[C@@H](Cc2ccccc2)C(=O)N[C@@H](C)C(=O)N2CCCCC2)NC(=O)[C@H]([C@@H](C)O)NC(=O)[C@H](CC(C)C)NC(=O)[C@H](Cc2ccccc2)N(C)C(=O)CNC(=O)[C@H](CC(C)C)N(C)C1=O [DP-364] ([NMeGABA]F[NMeL]PI[NMeL]G[NMeF]LTD[NMeF]A-Piperidide; lactam N-11) | 28 ×10⁻⁶ cm/s | 75 µL/min/mg |  | 
CC(C)C[C@H]1C(=O)N[C@H](C(=O)N2CCCCC2)CC(=O)N[C@H](C)C(=O)N(C)[C@@H](Cc2ccccc2)C(=O)N(C)[C@@H](CC(C)C)C(=O)N[C@@H]([C@@H](C)O)C(=O)N(C)CC(=O)N1C [DP-537] ([dA][NMeF][NMeL]T[Sar][NMeL]D-Piperidide; lactam N-7) | 10 ×10⁻⁶ cm/s | 78 µL/min/mg |  | 
CC(C)C[C@H]1C(=O)N[C@@H](Cc2ccccc2)C(=O)N(C)[C@@H](C(C)C)C(=O)N(C)[C@@H](C)C(=O)N(C)[C@@H](Cc2ccccc2)C(=O)N[C@@H]([C@@H](C)O)C(=O)NCC(=O)N[C@H](C(=O)N(C)[C@@H](Cc2ccccc2)C(=O)N[C@@H](C)C(=O)N2CCCCC2)CC(=O)N(C)[C@@H](C)C(=O)N[C@@H](C)C(=O)N1C [DP-375] ([NMeA]A[NMeL]F[NMeV][NMeA][NMeF]TGD[NMeF]A-Piperidide; lactam N-10) | 19 ×10⁻⁶ cm/s | 39 µL/min/mg |  | 
CC[C@H](C)[C@@H](C(=O)N[C@@H](Cc1ccccc1)C(=O)N1CCCCC1)N(C)C(=O)[C@@H]1CC(=O)N(C)[C@H](C)C(=O)N(C)[C@@H](CC(C)C)C(=O)N[C@@H](Cc2ccccc2)C(=O)N[C@@H]([C@@H](C)O)C(=O)N(C)CC(=O)N(C)[C@@H](C)C(=O)N(C)[C@@H](C(C)C)C(=O)N[C@@H](C)C(=O)N(C)[C@@H](CC(C)C)C(=O)N[C@@H](CC(C)C)C(=O)N1 [DP-583] ([dNMeA][NMeL]FT[Sar][NMeA][NMeV]A[NMeL]LD[NMeI]F-Piperidide; lactam N-11) | 25 ×10⁻⁶ cm/s | 27 µL/min/mg |  | 
CC[C@H](C)[C@H]1C(=O)N(C)CC(=O)N(C)[C@@H](C(C)C)C(=O)N[C@@H]([C@@H](C)O)C(=O)N[C@H](C(=O)N2CCCCC2)CC(=O)N[C@H](C(C)C)C(=O)N(C)[C@@H](C)C(=O)N(C)[C@@H](CC(C)C)C(=O)N[C@@H](CC(C)C)C(=O)N(C)[C@@H](Cc2ccccc2)C(=O)N[C@@H](Cc2ccccc2)C(=O)N1C [DP-233] ([dV][NMeA][NMeL]L[NMeF]F[NMeI][Sar][NMeV]TD-Piperidide; lactam N-11) | 32 ×10⁻⁶ cm/s | 39 µL/min/mg |  | 
CC[C@H](C)[C@H](NC(=O)CN(C)C(=O)[C@H](Cc1ccccc1)N(C)C(=O)[C@H](CC(C)C)N(C)C(=O)[C@@H](NC(=O)[C@@H]1CC(=O)N(C)[C@@H](C)C(=O)N[C@@H](CC(C)C)C(=O)N(C)[C@@H](CC(C)C)C(=O)N(C)[C@@H](C)C(=O)N(C)[C@@H](Cc2cccc(Cl)c2)C(=O)N[C@@H]([C@@H](C)O)C(=O)N1)C(C)C)C(=O)N1CCCCC1 [DP-912] ([NMeA]L[NMeL][NMeA][NMePhe(3-Cl)]TDV[NMeL][NMeF][Sar]I-Piperidide; lactam N-7) | 1.3 ×10⁻⁶ cm/s | 8 µL/min/mg |  | 
CC(C)C[C@@H]1NC(=O)C[C@@H](C(=O)N2CCCCC2)NC(=O)[C@H]([C@@H](C)O)NC(=O)[C@H](CC(C)C)N(C)C(=O)CN(C)C(=O)[C@H](Cc2ccccc2)N(C)C(=O)[C@H](C)N(C)C1=O [DP-745] (L[NMeA][NMeF][Sar][NMeL]TD-Piperidide; lactam N-7) | 17 ×10⁻⁶ cm/s | 232 µL/min/mg |  | 
CC(C)C[C@@H]1NC(=O)[C@H](CC(C)C)N(C)C(=O)[C@H](CC(C)C)N(C)C(=O)[C@@H](C)N(C)C(=O)C[C@@H](C(=O)N(C)[C@@H](Cc2ccccc2)C(=O)N[C@@H](C)C(=O)N2CCCCC2)NC(=O)[C@H](CC(C)C)N(C)C(=O)[C@H](Cc2ccccc2)NC(=O)[C@H](Cc2ccccc2)N(C)C(=O)[C@H](C)NC(=O)[C@H]([C@@H](C)O)NC1=O [DP-451] ([dNMeA][NMeL][NMeL]LTA[NMeF]F[NMeL]D[NMeF]A-Piperidide; lactam N-10) | 35 ×10⁻⁶ cm/s | 14 µL/min/mg |  | 
CC(C)C[C@H](NC(=O)[C@@H](NC(=O)[C@@H]1CCCN1C(=O)[C@@H]1CC(=O)N[C@H](C)C(=O)N(C)[C@@H](C)C(=O)N(C)[C@@H](Cc2ccccc2)C(=O)N(C)[C@@H](CC(C)C)C(=O)N[C@@H]([C@@H](C)O)C(=O)N(C)CC(=O)N(C)[C@@H](CC(C)C)C(=O)N[C@@H](COC(C)(C)C)C(=O)N(C)[C@@H](CC(C)C)C(=O)N1)C(C)C)C(=O)N1CCCCC1 [DP-579] ([dA][NMeA][NMeF][NMeL]T[Sar][NMeL]S(tBu)[NMeL]DPVL-Piperidide; lactam N-10) | 24 ×10⁻⁶ cm/s | 19 µL/min/mg |  | 
CC(C)C[C@@H]1NC(=O)[C@H](C)N(C)C(=O)C[C@@H](C(=O)N2CCCCC2)NC(=O)[C@H](Cc2ccccc2)N(C)C(=O)[C@H](CC(C)C)N(C)C(=O)CN(C)C(=O)[C@H]([C@@H](C)O)NC(=O)[C@H](C)N(C)C(=O)[C@H](C(C)C)N(C)C(=O)[C@H](C)NC(=O)[C@H](CC(C)C)N(C)C(=O)[C@H](Cc2ccccc2)N(C)C1=O [DP-133] ([NMeA]L[NMeF][NMeL]A[NMeV][NMeA]T[Sar][NMeL][NMeF]D-Piperidide; lactam N-12) | 30 ×10⁻⁶ cm/s | 51 µL/min/mg |  | 
CC(C)C[C@H]1C(=O)N[C@@H]([C@@H](C)O)C(=O)N(C)[C@@H](Cc2ccccc2)C(=O)N(C)[C@@H](CC(C)C)C(=O)NCC(=O)N(C)[C@@H](C(C)C)C(=O)N[C@@H](Cc2ccccc2)C(=O)N[C@H](C(=O)N2CCCCC2)CC(=O)N(C)[C@H](C)C(=O)N[C@@H](COC(C)(C)C)C(=O)N1C [DP-260] ([dNMeA]S(tBu)[NMeL]T[NMeF][NMeL]G[NMeV]FD-Piperidide; lactam N-10) | 44 ×10⁻⁶ cm/s | 259 µL/min/mg |  | 

— patent publication US9409952B2, “Peptide-compound cyclization method” (Chugai Seiyaku Kabushiki Kaisha, priority 2011, dated 2016)
